We go through 21 compounds from PubChem BioAssay (NCI).

The structures appear in SMILES notation.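 Briefly, cells in 96-well plates were exposed to five compound concentrations for 48 h, and endpoints were estimated by linear interpolation. At the GI50, growth is halved. Definition used: TGI = concentration required for complete inhibition of growth.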 A value given as a limit tells only on which side of the number the result lay.

Among the test systems are HCT-15 colon; HS 578T breast; MALME-3M melanoma; MCF7 breast; IGROV1 ovarian; KM12 colon; M14 melanoma; NCI-H522 lung; RXF 393 renal; SK-OV-3 ovarian.
What all share (experiment): NCI-60 cell line screen, 48 h

Turning to `COc1cc(/C=C2\CCCC3=C2NC(C)=NC3c2cc(OC)c(OC)c(OC)c2)cc(OC)c1OC` (stereo not given), the GI50 in the test with HCT-15 colon was 1.03 µM; with HS 578T breast, 5.16 µM; with MALME-3M melanoma it was 1.6 µM; with MCF7 breast it was 1.45 µM. The TGI was more than 100 µM in the test on HCT-15 colon, more than 100 µM in the test on HS 578T breast, 4.76 µM in the test on MALME-3M melanoma and more than 100 µM with MCF7 breast.

`CCN(CC)CC(=O)O[C@]1(CC)C(=O)OCc2c1cc1n(c2=O)Cc2cc3ccccc3nc2-1`: the TGI with HCT-15 colon was 3.93 µM; in the test with HS 578T breast, more than 100 µM; in the test with IGROV1 ovarian, 1.04 µM; in the test on KM12 colon it was 0.862 µM; with M14 melanoma, 0.318 µM; in the test with MALME-3M melanoma, 2.61 µM. The results for the TGI in the test with NCI-H522 lung and with RXF 393 renal were 1.44 µM and 0.564 µM, respectively.

As to `NC(N)=N/N=C/c1c(-c2cccc([N+](=O)[O-])c2)nc2n1CCS2`, the TGI was more than 100 µM in the test with HCT-15 colon; 32.1 µM with HS 578T breast; 30.9 µM in the test on IGROV1 ovarian; 68.5 µM with KM12 colon; 60 µM in the test on M14 melanoma; 38.1 µM with MALME-3M melanoma. The figures for the TGI in the test with MCF7 breast, in the test with NCI-H522 lung and in the test on RXF 393 renal were 36.1 µM, 32.2 µM and 36 µM, respectively.

Turning to `O=C1CCCCC2N(C(c3ccccc3)c3ccccc3)CC[C@@]12c1ccccc1` (mixture of isomers), the TGI with HCT-15 colon, in the test on IGROV1 ovarian, in the test on KM12 colon, in the test on M14 melanoma, with NCI-H522 lung and in the test with RXF 393 renal was more than 10 µM in each case. In addition, in the test on SK-OV-3 ovarian, the TGI was more than 10 µM.

Take `CN(C)CCCN1c2ccccc2Sc2cnccc21`: the TGI with HCT-15 colon, with HS 578T breast, in the test on IGROV1 ovarian, in the test on KM12 colon, in the test with M14 melanoma and in the test with MALME-3M melanoma was more than 100 µM in each case. Besides, the TGI in the test with MCF7 breast, in the test with NCI-H522 lung, with RXF 393 renal and with SK-OV-3 ovarian was more than 100 µM in each case.

In the case of `Cc1cc(O)c(C(C)(C)C)cc1Sc1cc(C(C)(C)C)c(O)cc1C`, the GI50 in the test with HCT-15 colon is 2.96 µM; in the test on HS 578T breast it was 3.02 µM; with IGROV1 ovarian, 2.98 µM; in the test on KM12 colon it was 2.24 µM; with MALME-3M melanoma it was 2.32 µM; in the test with MCF7 breast, 2.61 µM. Moreover, the figures for the GI50 with NCI-H522 lung, with RXF 393 renal and with SK-OV-3 ovarian were 2.73 µM, 1.82 µM and 3.56 µM, respectively. For the same compound, the TGI with HCT-15 colon was 11.8 µM; in the test on HS 578T breast, 13.9 µM; in the test with IGROV1 ovarian, 12.5 µM; in the test on KM12 colon it was 5.01 µM; in the test on MALME-3M melanoma, 5.71 µM; in the test with MCF7 breast, 9 µM. The TGI worked out at 5.62 µM in the test with NCI-H522 lung, 3.39 µM in the test with RXF 393 renal and 13.2 µM in the test with SK-OV-3 ovarian.

As for `Clc1ccccc1/C=C/c1cscn1`, the TGI in the test on HCT-15 colon, with KM12 colon, in the test on M14 melanoma, with MALME-3M melanoma, in the test on NCI-H522 lung and in the test with RXF 393 renal was more than 100 µM throughout. The same compound came in with a TGI in the test with SK-OV-3 ovarian of more than 100 µM.

Consider `O=C(O)Cc1cc(O)c(CC(=O)O)cc1O`, for which the TGI with HCT-15 colon, in the test with HS 578T breast, in the test on IGROV1 ovarian, with KM12 colon, with M14 melanoma and in the test with MALME-3M melanoma was more than 100 µM throughout. In addition, the TGI in the test on NCI-H522 lung and in the test with RXF 393 renal was more than 100 µM throughout.

As for `CCOC(=O)CN=C1NNS(=O)(=O)c2ccccc21`, the TGI with HCT-15 colon, in the test on HS 578T breast, in the test on IGROV1 ovarian, in the test on KM12 colon, in the test with M14 melanoma and in the test with MALME-3M melanoma was more than 100 µM each time. Moreover, the TGI with MCF7 breast, in the test with NCI-H522 lung, with RXF 393 renal and in the test on SK-OV-3 ovarian was more than 100 µM in each case.

For the compound `COc1ccc(C2C3=C(Nc4ncnn42)c2ccccc2OC3c2ccccc2)cc1` (stereo not given), the TGI is more than 100 µM in the test with HCT-15 colon; more than 100 µM in the test on HS 578T breast; more than 100 µM in the test with IGROV1 ovarian; 76.5 µM with KM12 colon; more than 100 µM in the test with M14 melanoma; more than 100 µM in the test with MCF7 breast. Further, the TGI in the test on RXF 393 renal is 48.1 µM; in the test with SK-OV-3 ovarian it was more than 100 µM.

Regarding `CCOC(=O)C(O)(NC(=O)c1ccc(F)cc1)C(F)(F)F` (stereo not given), the TGI in the test on HCT-15 colon, in the test on HS 578T breast, in the test with IGROV1 ovarian, in the test with KM12 colon, with M14 melanoma and with MALME-3M melanoma was more than 100 µM throughout. The TGI with MCF7 breast, in the test with NCI-H522 lung, with RXF 393 renal and with SK-OV-3 ovarian was more than 100 µM in each case.

As to `Cn1c(=O)c2[nH]c(CCCCC(=O)O)nc2n(C)c1=O`, the TGI with HCT-15 colon, in the test with HS 578T breast, in the test with IGROV1 ovarian, in the test on KM12 colon, in the test with M14 melanoma and with MALME-3M melanoma was more than 100 µM each time. Besides, the TGI with NCI-H522 lung and in the test on RXF 393 renal was more than 100 µM each time.

For the compound `N#Cc1c(Cl)c2cc([N+](=O)[O-])ccc2n2c1nc1ccccc12`, the TGI was determined as 2.3 µM in the test on HCT-15 colon; 18 µM in the test on HS 578T breast; 42.8 µM in the test with KM12 colon; 4.41 µM in the test with M14 melanoma; 24.1 µM with MALME-3M melanoma; 4.56 µM in the test with MCF7 breast. Also, the TGI is 4.71 µM with NCI-H522 lung, 5.39 µM in the test with RXF 393 renal and 54.5 µM in the test with SK-OV-3 ovarian.

For `CN(/N=C/c1ccc(OCc2cccc(COc3ccc(C=O)cc3)n2)cc1)c1cnn(-c2ccc(Cl)cc2Cl)c(=O)c1Cl`, the TGI with HCT-15 colon, in the test with HS 578T breast, with IGROV1 ovarian, with KM12 colon, in the test with M14 melanoma and in the test on MALME-3M melanoma was more than 100 µM throughout. Further, the TGI in the test with MCF7 breast is more than 100 µM; in the test with NCI-H522 lung it was more than 100 µM; in the test with RXF 393 renal, 73.2 µM.

Regarding `O=C1NN(C2=NNC3(C(=O)N2)c2ccccc2-c2ccccc23)C(c2ccccc2)=N/C1=C/c1ccc(O)cc1`, the GI50 was 49.6 µg/mL in the test on HCT-15 colon; 50.4 µg/mL in the test on HS 578T breast; 15 µg/mL in the test on IGROV1 ovarian; 28.6 µg/mL in the test with KM12 colon; 57.6 µg/mL in the test with M14 melanoma; 15 µg/mL with MALME-3M melanoma. Also, the results for the GI50 in the test on MCF7 breast, in the test on RXF 393 renal and with SK-OV-3 ovarian were 39.4 µg/mL, 97 µg/mL and 25.6 µg/mL, respectively. Moreover, the TGI in the test with HCT-15 colon was more than 150 µg/mL; in the test with HS 578T breast, more than 150 µg/mL; with IGROV1 ovarian it was 15 µg/mL; in the test on KM12 colon, 57.6 µg/mL; with M14 melanoma, more than 150 µg/mL; with MALME-3M melanoma it was 15 µg/mL. For the same compound, the TGI in the test on MCF7 breast, with RXF 393 renal and in the test on SK-OV-3 ovarian was more than 150 µg/mL throughout.

For `O=S1(=O)N(CCNc2nccc(-c3c(-c4cccc(O)c4)nc4sccn34)n2)CCN1Cc1ccccc1`, the GI50 with HCT-15 colon is 6.05 µM; in the test on HS 578T breast it was 2.78 µM; with IGROV1 ovarian, 6.65 µM; in the test on KM12 colon, 5.44 µM; in the test with M14 melanoma, 0.461 µM; with MALME-3M melanoma, 0.108 µM. Further, the results for the GI50 with MCF7 breast, in the test with NCI-H522 lung and with RXF 393 renal were 4.22 µM, 2.98 µM and 0.982 µM, respectively. The TGI is 20.9 µM in the test on HCT-15 colon; 16.6 µM with HS 578T breast; 43.6 µM in the test with IGROV1 ovarian; 15.3 µM in the test with KM12 colon; 27.7 µM in the test with M14 melanoma; more than 50 µM in the test on MALME-3M melanoma. The TGI turned out to be 34.6 µM in the test on MCF7 breast, 14.9 µM in the test with NCI-H522 lung and 9.37 µM with RXF 393 renal.

As for `Cc1nc2ccccc2n1C(=O)c1c(F)c(F)c(F)c(F)c1F`, the TGI in the test on HCT-15 colon was 33.9 µM; with HS 578T breast it was more than 100 µM; in the test with IGROV1 ovarian, 44.8 µM; in the test with KM12 colon, 14.7 µM; in the test with M14 melanoma, 25.9 µM; in the test with MALME-3M melanoma, 57.5 µM. Besides, the TGI in the test on MCF7 breast is more than 100 µM; in the test on NCI-H522 lung, 10.9 µM; with RXF 393 renal it was 33.5 µM; in the test on SK-OV-3 ovarian, 62 µM.

In the case of `O=c1c2cc(S(=O)(=O)O)ccc2nc(COc2ccc(Oc3ccc(Cl)cc3Cl)cc2)n1-c1ccc(Cl)cc1Oc1c(Cl)cccc1Cl`, the TGI in the test on HCT-15 colon was 56.6 µM; in the test on HS 578T breast, 76.3 µM; in the test with IGROV1 ovarian, more than 100 µM; with KM12 colon, more than 100 µM; in the test on M14 melanoma, 55.8 µM; in the test with MALME-3M melanoma, more than 100 µM. In addition, the TGI in the test on MCF7 breast stood at 45.6 µM; with NCI-H522 lung, 48.4 µM; with SK-OV-3 ovarian it was 63.2 µM.

In the case of `C=CC1(C)CCC2=C(CCC3C(C)(C(=O)OC)CCCC23C)C1=O` (stereo not given), the TGI with HCT-15 colon was 42.7 µM; with IGROV1 ovarian it was 37.1 µM; in the test with KM12 colon it was 31.5 µM; in the test with M14 melanoma it was 38.7 µM; in the test on MALME-3M melanoma it was 32.8 µM; in the test on NCI-H522 lung, 29.3 µM. The TGI in the test with SK-OV-3 ovarian was 34.4 µM.

Turning to `COc1cc(O)c2c(c1)OCC(Cc1ccc(O)cc1)C2=O` (stereo not given), the TGI with HCT-15 colon, in the test with HS 578T breast, in the test with IGROV1 ovarian, with KM12 colon, in the test on M14 melanoma and with MALME-3M melanoma was more than 100 µM each time. Moreover, the TGI in the test with NCI-H522 lung, in the test on RXF 393 renal and with SK-OV-3 ovarian was more than 100 µM each time.

In the case of `Cc1ccc2c(c1)C1(C)OC(C=CC1=O)O2` (stereo not given), the TGI is 0.772 µM in the test on HCT-15 colon; more than 26.6 µM in the test on HS 578T breast; 8.88 µM in the test with IGROV1 ovarian; 2.14 µM in the test with KM12 colon; 1.13 µM in the test on M14 melanoma; 1.32 µM with MALME-3M melanoma. The TGI with MCF7 breast amounted to 6.09 µM; in the test with NCI-H522 lung it was 0.239 µM; in the test on RXF 393 renal, 1.56 µM; with SK-OV-3 ovarian, 12 µM.
